{
  "source": "paper PMC3031978",
  "about": "(Bioorganic & medicinal chemistry letters, 2010)",
  "key": {"KOR [1]": {"molecular_target": "T1, KOR (Homo sapiens, UniProt P41145)", "T1 sequence (P41145 whole entry)": "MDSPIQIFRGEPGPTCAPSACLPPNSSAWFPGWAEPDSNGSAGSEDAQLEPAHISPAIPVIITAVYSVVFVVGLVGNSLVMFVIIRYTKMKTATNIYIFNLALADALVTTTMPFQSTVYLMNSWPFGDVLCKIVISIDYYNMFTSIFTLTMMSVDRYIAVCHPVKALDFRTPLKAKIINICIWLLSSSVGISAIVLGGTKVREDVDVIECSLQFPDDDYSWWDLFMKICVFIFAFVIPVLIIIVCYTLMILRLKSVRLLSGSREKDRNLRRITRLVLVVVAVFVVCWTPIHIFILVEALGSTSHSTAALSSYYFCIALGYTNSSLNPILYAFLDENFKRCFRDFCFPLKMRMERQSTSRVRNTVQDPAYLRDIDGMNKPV", "format": "binding"}, "KOR [2]": {"molecular_target": "T1, KOR", "format": "binding", "remark": "listed apart in the source"}, "KOR [3]": {"molecular_target": "T1, KOR", "format": "biochemical"}, "[4]": {"settings": "cited from earlier work"}},
  "note": "Entries after “also recorded” stand apart in the source; their conditions may differ.",
  "data": [
    {"compound": "COC(=O)[C@@H]1C[C@H](OC(=O)[C@H](C)N)C(=O)[C@H]2[C@@]1(C)CC[C@H]1C(=O)O[C@H](c3ccoc3)C[C@]21C", "note": "[Analogue 10]", "values": [
      {"measurement": "DOR/KOR", "setting": "KOR [1]", "result": ">2.64"},
      {"measurement": "MOR/KOR", "setting": "KOR [1]", "result": ">2.64"},
      {"measurement": "affinity at KOR (in words)", "setting": "KOR [1]", "result": "μM affinity; also recorded: in a μM range"},
      {"measurement": "displacement of [3H]diprenorphine at KOR (in words)", "setting": "KOR [2]", "result": "did not displace [^3H]diprenorphine; also recorded: did not displace KOR antagonist binding"}
    ]},
    {"compound": "COC(=O)[C@@H]1C[C@H](OC(=O)[C@@H](N)C(C)C)C(=O)[C@H]2[C@@]1(C)CC[C@H]1C(=O)O[C@H](c3ccoc3)C[C@]21C", "note": "[Analogue 12, 2-(2′-(S)-amino-3-methylbutanoate) salvinorin B]", "values": [
      {"measurement": "agonist activity at KOR (in words)", "setting": "KOR [3]", "result": "full agonist"},
      {"measurement": "DOR/KOR", "setting": "KOR [1]", "result": ">238"},
      {"measurement": "MOR/KOR", "setting": "KOR [1]", "result": ">238"}
    ]},
    {"compound": "NCC(=O)O", "note": "[Gly]", "values": [
      {"measurement": "stability (in words)", "setting": "[4]", "result": "unstable"}
    ]},
    {"compound": "CNCC(=O)O", "note": "[Sar]", "values": [
      {"measurement": "stability (in words)", "setting": "[4]", "result": "unstable"}
    ]}
  ]
}
